What was measured:
Homo sapiens = species on record: Homo sapiens; test: Selectivity ratio of Ki for human CB1 receptor to Ki for human CB2 receptor
Cannabinoid receptor 1 = Cannabinoid receptor 1 (Homo sapiens, UniProt P21554); test: Binding affinity to human CB1 receptor transfected in HEK293 cells; assay type: cell-based
Cannabinoid receptor 2 = Cannabinoid receptor 2 (Homo sapiens, UniProt P34972); test: Binding affinity to human CB2 receptor transfected in HEK293 cells; assay type: cell-based
Chain of Cannabinoid receptor 2 (P34972 whole entry): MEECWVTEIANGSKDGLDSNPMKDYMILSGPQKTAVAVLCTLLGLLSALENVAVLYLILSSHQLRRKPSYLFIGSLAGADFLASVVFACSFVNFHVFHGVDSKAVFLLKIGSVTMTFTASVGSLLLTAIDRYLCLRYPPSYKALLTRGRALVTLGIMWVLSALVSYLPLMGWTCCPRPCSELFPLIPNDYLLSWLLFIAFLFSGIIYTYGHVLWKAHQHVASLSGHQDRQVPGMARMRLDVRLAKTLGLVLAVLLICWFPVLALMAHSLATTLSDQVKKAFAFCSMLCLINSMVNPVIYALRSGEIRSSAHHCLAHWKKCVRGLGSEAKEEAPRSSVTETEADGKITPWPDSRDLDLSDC

Chain of Cannabinoid receptor 1 (P21554 whole entry): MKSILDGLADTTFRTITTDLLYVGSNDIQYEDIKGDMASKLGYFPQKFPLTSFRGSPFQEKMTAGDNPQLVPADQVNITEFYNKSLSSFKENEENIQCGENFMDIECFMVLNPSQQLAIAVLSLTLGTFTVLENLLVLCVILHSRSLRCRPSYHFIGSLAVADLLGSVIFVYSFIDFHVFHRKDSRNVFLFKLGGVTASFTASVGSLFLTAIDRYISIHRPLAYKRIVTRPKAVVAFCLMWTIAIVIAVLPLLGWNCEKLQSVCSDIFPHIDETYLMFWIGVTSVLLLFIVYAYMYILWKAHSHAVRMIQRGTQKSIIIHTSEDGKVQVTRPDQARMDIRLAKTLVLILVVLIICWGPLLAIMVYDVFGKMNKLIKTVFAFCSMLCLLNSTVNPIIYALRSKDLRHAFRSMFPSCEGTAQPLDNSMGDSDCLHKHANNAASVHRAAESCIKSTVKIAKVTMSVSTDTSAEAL

Row | SMILES | Ratio Ki (Homo sapiens) | Ki (Cannabinoid receptor 1) [nM] | Ki (Cannabinoid receptor 2) [nM]
1 | O=C(c1ccccc1)c1cc(O)c(-c2cc(Cl)cc(Cl)c2)c(O)c1 | 9.2 |  | 
2 | COc1cc(C(O)c2ccccc2)cc(OC)c1-c1cc(Cl)cc(Cl)c1 (centres undefined) | 602 | > 1000 | 
3 | COc1cc(C(=O)c2ccccc2)cc(O)c1-c1cc(Cl)cc(Cl)c1 | 210 | > 1000 | 
4 | CC(C)(c1ccccc1)c1cc(O)c(-c2cc(Cl)cc(Cl)c2)c(O)c1 | 87.5 | 93.7 | 1.07
5 | CC1=CC[C@@H]2[C@@H](C1)c1c(O)cc(C(C)(C)c3ccccc3)cc1OC2(C)C | 13.5 |  | 
